By IC50 is commonly meant the concentration needed to halve the response being measured. Usually viability, T/C stands for the result in the treated group divided by that in the control group, in per cent.

We go through four molecules from PubChem BioAssay AID1963837 (Molecular Pharmacology Branch, DTP, NCI, 2024).
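For viability, T/C in this document: spheroids exposed to drugs for seven days before readout.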

One assay concerns 843126-344-R-J1-PDC complex spheroid viability. The assay can be described thus: Anticancer human tumor 843126-344-R-J1-PDC patient-derived melanoma cell line growth inhibition [POLQ]. As to conditions: curve of first compound; second compound 0.0316 µM. The method in brief:
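Growth inhibition in 3D: complex spheroids (tumor PDC, HUVEC, MSC) treated with POLQ inhibitor combinations; where Cmax unknown, highest tested concentration 10 microM, except SN-38 at 1 microM.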
As to `C=CCn1c(=O)c2cnc(Nc3ccc(N4CCN(C)CC4)cc3)nc2n1-c1cccc(C(C)(C)O)n1` + Nc1ccc(C#CCN(C(=O)Cc2ncc(C(F)(F)F)cc2C(F)(F)F)c2ccc(F)cc2)nn1, the IC50 is > 1 µM.

`CCc1c2c(nc3ccc(O)cc13)-c1cc3c(c(=O)n1C2)COC(=O)[C@]3(O)CC` + Nc1ccc(C#CCN(C(=O)Cc2ncc(C(F)(F)F)cc2C(F)(F)F)c2ccc(F)cc2)nn1: the IC50 was > 1 µM.

`CNCc1ccc(-c2[nH]c3cc(F)cc4c3c2CCNC4=O)cc1` + Nc1ccc(C#CCN(C(=O)Cc2ncc(C(F)(F)F)cc2C(F)(F)F)c2ccc(F)cc2)nn1: the IC50 was > 10 µM.

Take `O=C(c1cc(Cc2n[nH]c(=O)c3ccccc23)ccc1F)N1CCN(C(=O)C2CC2)CC1` + Nc1ccc(C#CCN(C(=O)Cc2ncc(C(F)(F)F)cc2C(F)(F)F)c2ccc(F)cc2)nn1: the IC50 was > 10 µM.

The assay is the same for the next values; noted with them: curve of first compound; second compound 0.1 µM.
Turning to `C=CCn1c(=O)c2cnc(Nc3ccc(N4CCN(C)CC4)cc3)nc2n1-c1cccc(C(C)(C)O)n1` + Nc1ccc(C#CCN(C(=O)Cc2ncc(C(F)(F)F)cc2C(F)(F)F)c2ccc(F)cc2)nn1, the IC50 was > 1 µM.

Regarding `CCc1c2c(nc3ccc(O)cc13)-c1cc3c(c(=O)n1C2)COC(=O)[C@]3(O)CC` + Nc1ccc(C#CCN(C(=O)Cc2ncc(C(F)(F)F)cc2C(F)(F)F)c2ccc(F)cc2)nn1, the IC50 is > 1 µM.

With `CNCc1ccc(-c2[nH]c3cc(F)cc4c3c2CCNC4=O)cc1` + Nc1ccc(C#CCN(C(=O)Cc2ncc(C(F)(F)F)cc2C(F)(F)F)c2ccc(F)cc2)nn1, the IC50 was > 10 µM.

Consider `O=C(c1cc(Cc2n[nH]c(=O)c3ccccc23)ccc1F)N1CCN(C(=O)C2CC2)CC1` + Nc1ccc(C#CCN(C(=O)Cc2ncc(C(F)(F)F)cc2C(F)(F)F)c2ccc(F)cc2)nn1, for which the IC50 was > 10 µM.

Still in this assay, the particulars now being: curve of first compound; second compound 0.316 µM.
With `C=CCn1c(=O)c2cnc(Nc3ccc(N4CCN(C)CC4)cc3)nc2n1-c1cccc(C(C)(C)O)n1` + Nc1ccc(C#CCN(C(=O)Cc2ncc(C(F)(F)F)cc2C(F)(F)F)c2ccc(F)cc2)nn1, the concentration for half-maximal inhibition (IC50) was > 1 µM.

On to `CCc1c2c(nc3ccc(O)cc13)-c1cc3c(c(=O)n1C2)COC(=O)[C@]3(O)CC` + Nc1ccc(C#CCN(C(=O)Cc2ncc(C(F)(F)F)cc2C(F)(F)F)c2ccc(F)cc2)nn1, for which the IC50 was > 1 µM.

Take `CNCc1ccc(-c2[nH]c3cc(F)cc4c3c2CCNC4=O)cc1` + Nc1ccc(C#CCN(C(=O)Cc2ncc(C(F)(F)F)cc2C(F)(F)F)c2ccc(F)cc2)nn1: the IC50 is > 10 µM.

As to `O=C(c1cc(Cc2n[nH]c(=O)c3ccccc23)ccc1F)N1CCN(C(=O)C2CC2)CC1` + Nc1ccc(C#CCN(C(=O)Cc2ncc(C(F)(F)F)cc2C(F)(F)F)c2ccc(F)cc2)nn1, the IC50 is > 10 µM.

Still in this assay, the particulars now being: curve of first compound; second compound 1 µM.
With `C=CCn1c(=O)c2cnc(Nc3ccc(N4CCN(C)CC4)cc3)nc2n1-c1cccc(C(C)(C)O)n1` + Nc1ccc(C#CCN(C(=O)Cc2ncc(C(F)(F)F)cc2C(F)(F)F)c2ccc(F)cc2)nn1, the IC50 was > 1 µM.

Turning to `CCc1c2c(nc3ccc(O)cc13)-c1cc3c(c(=O)n1C2)COC(=O)[C@]3(O)CC` + Nc1ccc(C#CCN(C(=O)Cc2ncc(C(F)(F)F)cc2C(F)(F)F)c2ccc(F)cc2)nn1, the IC50 is > 1 µM.

In the case of `CNCc1ccc(-c2[nH]c3cc(F)cc4c3c2CCNC4=O)cc1` + Nc1ccc(C#CCN(C(=O)Cc2ncc(C(F)(F)F)cc2C(F)(F)F)c2ccc(F)cc2)nn1, the IC50 was > 10 µM.

For `O=C(c1cc(Cc2n[nH]c(=O)c3ccccc23)ccc1F)N1CCN(C(=O)C2CC2)CC1` + Nc1ccc(C#CCN(C(=O)Cc2ncc(C(F)(F)F)cc2C(F)(F)F)c2ccc(F)cc2)nn1, the IC50 was > 10 µM.

The assay is the same for the next values; noted with them: curve of first compound; second compound 3.16 µM.
As for `C=CCn1c(=O)c2cnc(Nc3ccc(N4CCN(C)CC4)cc3)nc2n1-c1cccc(C(C)(C)O)n1` + Nc1ccc(C#CCN(C(=O)Cc2ncc(C(F)(F)F)cc2C(F)(F)F)c2ccc(F)cc2)nn1, the IC50 is > 1 µM.

For `CCc1c2c(nc3ccc(O)cc13)-c1cc3c(c(=O)n1C2)COC(=O)[C@]3(O)CC` + Nc1ccc(C#CCN(C(=O)Cc2ncc(C(F)(F)F)cc2C(F)(F)F)c2ccc(F)cc2)nn1, the IC50 is > 1 µM.

As for `CNCc1ccc(-c2[nH]c3cc(F)cc4c3c2CCNC4=O)cc1` + Nc1ccc(C#CCN(C(=O)Cc2ncc(C(F)(F)F)cc2C(F)(F)F)c2ccc(F)cc2)nn1, the IC50 was > 10 µM.

For `O=C(c1cc(Cc2n[nH]c(=O)c3ccccc23)ccc1F)N1CCN(C(=O)C2CC2)CC1` + Nc1ccc(C#CCN(C(=O)Cc2ncc(C(F)(F)F)cc2C(F)(F)F)c2ccc(F)cc2)nn1, the IC50 was > 10 µM.

Still in this assay, the particulars now being: curve of first compound; second compound 10 µM.
Take `C=CCn1c(=O)c2cnc(Nc3ccc(N4CCN(C)CC4)cc3)nc2n1-c1cccc(C(C)(C)O)n1` + Nc1ccc(C#CCN(C(=O)Cc2ncc(C(F)(F)F)cc2C(F)(F)F)c2ccc(F)cc2)nn1: the IC50 is > 1 µM.

Consider `CCc1c2c(nc3ccc(O)cc13)-c1cc3c(c(=O)n1C2)COC(=O)[C@]3(O)CC` + Nc1ccc(C#CCN(C(=O)Cc2ncc(C(F)(F)F)cc2C(F)(F)F)c2ccc(F)cc2)nn1, for which the IC50 is > 1 µM.

On to `CNCc1ccc(-c2[nH]c3cc(F)cc4c3c2CCNC4=O)cc1` + Nc1ccc(C#CCN(C(=O)Cc2ncc(C(F)(F)F)cc2C(F)(F)F)c2ccc(F)cc2)nn1, for which the IC50 was > 10 µM.

Take `O=C(c1cc(Cc2n[nH]c(=O)c3ccccc23)ccc1F)N1CCN(C(=O)C2CC2)CC1` + Nc1ccc(C#CCN(C(=O)Cc2ncc(C(F)(F)F)cc2C(F)(F)F)c2ccc(F)cc2)nn1: the IC50 is > 10 µM.

Still in this assay, the particulars now being: second compound 0.0316 µM; first compound 0.00316 µM; stronger effect = lower value.
In the case of `C=CCn1c(=O)c2cnc(Nc3ccc(N4CCN(C)CC4)cc3)nc2n1-c1cccc(C(C)(C)O)n1` + Nc1ccc(C#CCN(C(=O)Cc2ncc(C(F)(F)F)cc2C(F)(F)F)c2ccc(F)cc2)nn1, the viability, T/C was 93.9%.

For the molecule `CCc1c2c(nc3ccc(O)cc13)-c1cc3c(c(=O)n1C2)COC(=O)[C@]3(O)CC` + Nc1ccc(C#CCN(C(=O)Cc2ncc(C(F)(F)F)cc2C(F)(F)F)c2ccc(F)cc2)nn1, the viability, T/C is 68.2%.

Staying with this assay, now noted: second compound 0.0316 µM; first compound 0.01 µM; stronger effect = lower value.
With `C=CCn1c(=O)c2cnc(Nc3ccc(N4CCN(C)CC4)cc3)nc2n1-c1cccc(C(C)(C)O)n1` + Nc1ccc(C#CCN(C(=O)Cc2ncc(C(F)(F)F)cc2C(F)(F)F)c2ccc(F)cc2)nn1, the viability, T/C was 81.2%.

Regarding `CCc1c2c(nc3ccc(O)cc13)-c1cc3c(c(=O)n1C2)COC(=O)[C@]3(O)CC` + Nc1ccc(C#CCN(C(=O)Cc2ncc(C(F)(F)F)cc2C(F)(F)F)c2ccc(F)cc2)nn1, the viability, T/C is 60%.

Staying with this assay, now noted: second compound 0.0316 µM; first compound 0.0316 µM; stronger effect = lower value.
Turning to `C=CCn1c(=O)c2cnc(Nc3ccc(N4CCN(C)CC4)cc3)nc2n1-c1cccc(C(C)(C)O)n1` + Nc1ccc(C#CCN(C(=O)Cc2ncc(C(F)(F)F)cc2C(F)(F)F)c2ccc(F)cc2)nn1, the viability, T/C is 98.9%.

`CCc1c2c(nc3ccc(O)cc13)-c1cc3c(c(=O)n1C2)COC(=O)[C@]3(O)CC` + Nc1ccc(C#CCN(C(=O)Cc2ncc(C(F)(F)F)cc2C(F)(F)F)c2ccc(F)cc2)nn1: the viability, T/C was 63.9%.

As to `CNCc1ccc(-c2[nH]c3cc(F)cc4c3c2CCNC4=O)cc1` + Nc1ccc(C#CCN(C(=O)Cc2ncc(C(F)(F)F)cc2C(F)(F)F)c2ccc(F)cc2)nn1, the viability, T/C is 104%.

Turning to `O=C(c1cc(Cc2n[nH]c(=O)c3ccccc23)ccc1F)N1CCN(C(=O)C2CC2)CC1` + Nc1ccc(C#CCN(C(=O)Cc2ncc(C(F)(F)F)cc2C(F)(F)F)c2ccc(F)cc2)nn1, the viability, T/C is 98.2%.

Still in this assay, the particulars now being: second compound 0.0316 µM; first compound 0.1 µM; stronger effect = lower value.
In the case of `C=CCn1c(=O)c2cnc(Nc3ccc(N4CCN(C)CC4)cc3)nc2n1-c1cccc(C(C)(C)O)n1` + Nc1ccc(C#CCN(C(=O)Cc2ncc(C(F)(F)F)cc2C(F)(F)F)c2ccc(F)cc2)nn1, the viability, T/C is 110%.

As to `CCc1c2c(nc3ccc(O)cc13)-c1cc3c(c(=O)n1C2)COC(=O)[C@]3(O)CC` + Nc1ccc(C#CCN(C(=O)Cc2ncc(C(F)(F)F)cc2C(F)(F)F)c2ccc(F)cc2)nn1, the viability, T/C was 64.7%.

In the case of `CNCc1ccc(-c2[nH]c3cc(F)cc4c3c2CCNC4=O)cc1` + Nc1ccc(C#CCN(C(=O)Cc2ncc(C(F)(F)F)cc2C(F)(F)F)c2ccc(F)cc2)nn1, the viability, T/C was 92.1%.

As to `O=C(c1cc(Cc2n[nH]c(=O)c3ccccc23)ccc1F)N1CCN(C(=O)C2CC2)CC1` + Nc1ccc(C#CCN(C(=O)Cc2ncc(C(F)(F)F)cc2C(F)(F)F)c2ccc(F)cc2)nn1, the viability, T/C was 73.7%.

The assay is the same for the next values; noted with them: second compound 0.0316 µM; first compound 0.316 µM; stronger effect = lower value.
`C=CCn1c(=O)c2cnc(Nc3ccc(N4CCN(C)CC4)cc3)nc2n1-c1cccc(C(C)(C)O)n1` + Nc1ccc(C#CCN(C(=O)Cc2ncc(C(F)(F)F)cc2C(F)(F)F)c2ccc(F)cc2)nn1: the viability, T/C was 101%.

Regarding `CCc1c2c(nc3ccc(O)cc13)-c1cc3c(c(=O)n1C2)COC(=O)[C@]3(O)CC` + Nc1ccc(C#CCN(C(=O)Cc2ncc(C(F)(F)F)cc2C(F)(F)F)c2ccc(F)cc2)nn1, the viability, T/C is 58.8%.

Take `CNCc1ccc(-c2[nH]c3cc(F)cc4c3c2CCNC4=O)cc1` + Nc1ccc(C#CCN(C(=O)Cc2ncc(C(F)(F)F)cc2C(F)(F)F)c2ccc(F)cc2)nn1: the viability, T/C was 100%.

As for `O=C(c1cc(Cc2n[nH]c(=O)c3ccccc23)ccc1F)N1CCN(C(=O)C2CC2)CC1` + Nc1ccc(C#CCN(C(=O)Cc2ncc(C(F)(F)F)cc2C(F)(F)F)c2ccc(F)cc2)nn1, the viability, T/C is 93.5%.

The same assay, now with this note: second compound 0.0316 µM; first compound 1 µM; stronger effect = lower value.
For the molecule `C=CCn1c(=O)c2cnc(Nc3ccc(N4CCN(C)CC4)cc3)nc2n1-c1cccc(C(C)(C)O)n1` + Nc1ccc(C#CCN(C(=O)Cc2ncc(C(F)(F)F)cc2C(F)(F)F)c2ccc(F)cc2)nn1, the viability, T/C was 81.9%.

Take `CCc1c2c(nc3ccc(O)cc13)-c1cc3c(c(=O)n1C2)COC(=O)[C@]3(O)CC` + Nc1ccc(C#CCN(C(=O)Cc2ncc(C(F)(F)F)cc2C(F)(F)F)c2ccc(F)cc2)nn1: the viability, T/C was 49.1%.
